Active and inactive are the calls of the source. The calls are words filed in the database; no cut-off is given here.
Legend:
MDA-MB-231 = test: Antiproliferative activity against human MDA-MB-231 cells; type: functional, cell-based
Estrogen receptor = biological target: T1, Estrogen receptor (Homo sapiens, UniProt P03372); test: Transactivation of ERalpha in human MCF7-2a cells assessed as luciferase reporter gene expression; type: cell-based
T1 sequence (P03372 whole entry): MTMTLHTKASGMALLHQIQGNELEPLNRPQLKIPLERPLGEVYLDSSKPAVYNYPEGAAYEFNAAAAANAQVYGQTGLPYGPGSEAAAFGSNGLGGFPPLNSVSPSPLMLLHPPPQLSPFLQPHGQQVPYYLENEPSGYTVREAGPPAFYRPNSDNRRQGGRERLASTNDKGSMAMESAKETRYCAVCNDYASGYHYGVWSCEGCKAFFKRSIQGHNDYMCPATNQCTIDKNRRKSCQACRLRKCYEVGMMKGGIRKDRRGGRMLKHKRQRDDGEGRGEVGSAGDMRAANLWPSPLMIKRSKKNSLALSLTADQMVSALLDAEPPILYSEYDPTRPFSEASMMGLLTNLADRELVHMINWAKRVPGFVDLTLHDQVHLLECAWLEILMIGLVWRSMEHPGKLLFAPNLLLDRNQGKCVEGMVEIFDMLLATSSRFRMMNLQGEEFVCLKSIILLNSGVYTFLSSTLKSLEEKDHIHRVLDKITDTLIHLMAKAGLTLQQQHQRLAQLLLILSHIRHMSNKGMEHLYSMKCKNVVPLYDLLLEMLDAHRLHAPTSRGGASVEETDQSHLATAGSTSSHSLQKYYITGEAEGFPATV

MCF7 = test: Antiproliferative activity against human MCF7 cells; type: functional, cell-based
[1] = biological target: T2, Estrogen receptor (Homo sapiens) (UniProt P03372); test: Transactivation of ERalpha in human MCF7-2a cells assessed as luciferase reporter gene expression at 1 uM relative to estradiol; type: cell-based
T2 sequence (whole entry): T1 sequence (P03372 whole entry)

Row | Structure (SMILES) | Activity (MDA-MB-231) | EC50 (Estrogen receptor) [nM] | Activity (MCF7) | Activity [1] [%]
1 | C#CCN1C=NC(c2ccc(O)cc2Cl)C1c1ccc(O)cc1Cl (stereo unspecified) | inactive | 10 | inactive | 
2 | C#CCN1C=NC(c2ccc(OC)cc2Cl)C1c1ccc(OC)cc1Cl (stereo unspecified) | inactive |  | inactive | 13

From ChEMBL document CHEMBL1152270, “Cobalt-alkyne complexes with imidazoline ligands as estrogenic carriers: synthesis and pharmacological investigations” (J Med Chem, 2008)
